{
  "source": "patent US20080112943A1",
  "about": "“Biosynthetic Polypeptide Fusion Inhibitors” (priority 2005, published 2008)",
  "origin": "cited, not measured here",
  "key": {"[1]": {"target": "T1, N-formyl peptide receptor (Homo sapiens, UniProt P21462)", "T1 construct": "host or cells: human phagocytes (endogenous receptor)", "T1 sequence (P21462 1-350)": "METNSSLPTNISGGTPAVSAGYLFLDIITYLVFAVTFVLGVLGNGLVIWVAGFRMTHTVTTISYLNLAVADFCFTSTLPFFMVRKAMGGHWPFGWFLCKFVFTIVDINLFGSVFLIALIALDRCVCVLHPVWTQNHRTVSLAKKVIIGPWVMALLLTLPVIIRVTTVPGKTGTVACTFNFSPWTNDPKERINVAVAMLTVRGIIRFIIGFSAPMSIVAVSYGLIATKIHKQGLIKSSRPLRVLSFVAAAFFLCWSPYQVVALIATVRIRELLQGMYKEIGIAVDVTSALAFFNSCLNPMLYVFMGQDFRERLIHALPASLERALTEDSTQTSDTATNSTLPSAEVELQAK", "settings": "human phagocytes"}, "[2]": {"system": "monocytes and neutrophils"}, "[3]": {"settings": "in vitro studies and in animals"}},
  "data": [
    {"substance": "enfuvirtide", "values": [
      {"measurement": "activation of the N-formyl peptide receptor", "setting": "[1]", "value": "activates"},
      {"measurement": "chemoattractant and activator of monocytes and neutrophils", "setting": "[2]", "value": "chemoattractant and activator"},
      {"measurement": "inhibition of HIV-1 mediated CD-4+ cell-cell fusion (i.e., syncytial formation) and infection of CD-4+ cells by cell-free virus", "setting": "HIV-1", "value": "potent inhibitor"},
      {"measurement": "toxicity", "setting": "[3]", "value": "non-toxic"}
    ]}
  ]
}
